Test results published in PMC12128972, “TYRA-300, an FGFR3-selective inhibitor, promotes bone growth in two FGFR3-driven models of chondrodysplasia” (JCI Insight, 2025).
Several values for one entry are separate records, joined by “and”; a condition that tells them apart may be missing. Equal values may be shown once.

What was measured:
[1] = tested on: Fgfr3^N534K/+ mouse model of HCH; test: Fgfr3N534K/+ mice: long bone length; type: in vivo
Experimental: To explore the effectiveness of TYRA-300 in an additional model of FGFR3-related chondrodysplasia, TYRA-300 was evaluated in a Tg-CMV^Cre/+/Fgfr3^N534K/+ mouse model of HCH ([42]). This model is driven by the Fgfr3 N534K mutation, which corresponds to the human FGFR3 N540K mutation ([9], [43]). This model closely recapitulates the skeletal phenotype of HCH in humans, with a milder disproportionate short stature phenotype ([42]). […] Because the goal of treatment with TYRA-300 is to […] Fgfr3 signaling levels, Fgfr3^N534K/+ mice were administered a lower dose of 1.8 mg/kg TYRA-300 daily for the full study. Mice were treated for 21 days, from 3 to 24 days of age. Treatment was started at an older age in the HCH model than in the ACH model, as children with HCH are often diagnosed later than children with ACH.
Tg-CMV^Cre/+/Fgfr3^N534K/+ mice were tattooed and assigned to treatment groups within each litter at 3 days of age (wild-type mice, Fgfr3^N534K/+ mice treated with vehicle, or Fgfr3^N534K/+ mice treated with 1.8 mg/kg TYRA-300). TYRA-300 was dissolved in aqueous HCl (3.5 mM) containing 5% DMSO and administered subcutaneously to Fgfr3^N534K/+ mice (n = 9) for 21 days. The vehicle was administered to wild-type (n = 12) or Fgfr3^N534K/+ mice (n = 11) for 21 days. Subcutaneous administration was used for this study rather than oral gavage due to the size of the mice. Clinical observations, nasoanal length, and tail length measurements were performed every 3 days, and body weights were collected daily.
(§1) Whole body x-ray images were taken of all animals by Faxitron specimen radiography MX-20 (Faxitron X-Ray LLC) following terminal sacrifice. The length of the L4–L6 lumbar vertebra segment was also measured for each animal using calipers, and the height of the L5 vertebral body was measured from Alcian blue/Sirius red images. Long bones and the skull were then excised, and their dimensions were measured using calipers (VWRi819-0013, VWR International). The transverse and sagittal diameters of the foramen magnum were also measured using calipers for the Fgfr3^Y367/+ model, and measured using the μCT images for the Fgfr3^N534K/+ model.

[2] = tested on: pERK1/2; test: Fgfr3N534K/+ mice: histology and pERK1/2 immunohistochemistry of distal femur; type: in vivo, mouse; conditions: 1.8 mg/kg daily for 21 days
Experimental: To confirm the mechanistic effect of TYRA-300 within the growth plate of treated Fgfr3^N534K/+ mice, immunohistochemical analyses were performed on the distal femurs. In contrast to the ACH model, a larger SOC is visible in the femoral epiphysis of HCH mice ([42]), and the effect of TYRA-300 on SOC formation is not obvious. […] It is well established that the MAPK pathway is the canonical FGFR3 downstream signaling pathway. Here, we confirmed that this pathway is still activated at 24 days of age in the HCH growth plate through immunohistochemical staining of phosphorylated ERK1/2 (pERK), which was positive in hypertrophic chondrocytes (Figure 4G).
The right femur and lumbar vertebrae segment L4–L6 were collected and fixed in 4% paraformaldehyde, decalcified with ethylenediaminetetraacetic acid (EDTA) 0.5 M (pH 8) for 2 or 3 weeks, and embedded in paraffin. Serial paraffin sections of 5 μm were stained with hematoxylin, eosin, and Safranin O. For immunohistochemistry, sections were labeled with antibodies against collagen type X (BIOCYC ref. [1]-CO097-05-RUO, 1:100 dilution), collagen type I (Novotec, 20151, dilution 1:1,000), pERK (Cell Signaling, 4370S, dilution 1:1,000), and PCNA (Abcam, GR3195972-6, 1:500 dilution) using the Dako Envision Kit. […] Cells were counted using ImageJ software (NIH, Laboratory for Optical Computational Instrumentation).

[3] = tested on: Fgfr3^Y367C/+ mouse model, which mimics the phenotype of ACH; test: Fgfr3Y367C/+ mice: growth, body weight and long bone length (calipers, x-ray); type: in vivo; set-up: nasoanal length, individual mice / tail length, individual mice: unit not given here; conditions: for nasoanal length, individual mice / tail length, individual mice / body weight, individual mice: 1.2 mg/kg/d s.c. from day 1
Experimental: In this study, Fgfr3^Y367C/+ mice were administered TYRA-300 daily by subcutaneous injection at a dose of 1.2 mg/kg for 15 days beginning at 1 day of age to evaluate the effects on growth, bone length, and key skeletal parameters, compared with those of vehicle-treated Fgfr3^Y367C/+ mice. Results were also compared with those from vehicle-treated Fgfr3^+/+ (wild-type) mice. […] In Fgfr3^Y367C/+ mice, the […], resulting in disproportionate long bones.
Tg-CMV^Cre/+/Fgfr3^Y367C/+ mice were tattooed and assigned to treatment groups within each litter at 1 day of age (wild-type mice, Fgfr3^Y367/+ mice treated with vehicle, or Fgfr3^Y367/+ mice treated with 1.2 mg/kg TYRA-300). TYRA-300 was dissolved in aqueous HCl (3.5 mM) containing 5% dimethyl sulfoxide (DMSO) and administered subcutaneously to Fgfr3^Y367/+ mice (n = 8) for 15 days. The vehicle was administered to wild-type (n = 10) or Fgfr3^Y367/+ mice (n = 10) for 15 days. Subcutaneous administration was used for this study rather than oral gavage due to the reduced size of the mice. Clinical observations, nasoanal length and tail length measurements were performed every 3 days, and body weights were collected daily.
as §1

[4] = 1.8 mg/kg daily s.c. for 21 days, 3 to 24 days of age
[5] = Fgfr3N534K/+ mice + TYRA-300, individual animal values, in mm (unit assumed)
[6] = 1.2 mg/kg s.c. daily for 15 days
[7] = 1.2 mg/kg s.c. daily for 15 days from 1 day of age
[8] = Fgfr3Y367C/+ mice + TYRA-300, individual animal values, in mm (unit assumed)

Structure (SMILES): C[C@@H](Oc1ccc2[nH]nc(-c3ccc(N4CC5(C4)CN(S(C)(=O)=O)C5)nc3)c2c1)c1c(Cl)cncc1Cl [TYRA-300]
- increase in femur length vs vehicle [1, 4]: 3.70%
- increase in humerus length vs vehicle [1, 4]: 3.22%
- increase in tibia length vs vehicle [1, 4]: 3.75%
- increase in ulna length vs vehicle [1, 4]: 5.03%
- source data of Figure 4A (sheet "4A"): long bone length, bone not given [1, 5]: 12.31 and 12.55 and 12.375 and 11.91 and 12.485 and 12.9 and 12.58 and 12.185 and 11.555
- source data of Figure 4B (sheet "4B"): long bone length, bone not given [1, 5]: 10.06 and 10.16 and 10.36 and 9.8 and 10.2 and 10.18 and 10.1 and 10.15 and 9.47
- source data of Figure 4C (sheet "4C"): long bone length, bone not given [1, 5]: 10.705 and 10.605 and 11.015 and 10.35 and 10.8 and 10.795 and 10.61 and 11.13 and 10.195
- source data of Figure 4D (sheet "4D"): long bone length, bone not given [1, 5]: 8.28 and 8.42 and 8.455 and 8.1 and 8.32 and 8.43 and 8.22 and 8.35 and 8.08
- average normalization of long bone length toward wild-type ([1]; HCH model, 1.8 mg/kg): 25%
- overall architecture of the growth plate (H&E and collagen type X) [2]: did not demonstrate significant changes
- pERK+ cells per ROI vs vehicle ([2]; distal femur growth plate): significant decrease
- increase in length of the femur vs vehicle [3, 6]: 22.55%
- increase in length of the humerus vs vehicle [3, 6]: 15.52%
- increase in length of the tibia vs vehicle [3, 6]: 33.01%
- increase in length of the ulna vs vehicle [3, 6]: 23.51%
- increase in nasoanal length vs vehicle-treated mutant mice [3, 7]: 17.88%
- increase in tail length vs vehicle-treated mutant mice [3, 7]: 25.10%
- increase in body weight vs vehicle-treated mice ([3]; 1.2 mg/kg s.c. daily, end of treatment): 52.9%
- nasoanal length, individual mice ([3]; day 1): 29 (4×) and 30 and 28 and 31 (2×)
- tail length, individual mice ([3]; day 1): 12 and 13 (6×) and 14
- body weight, individual mice ([3]; day 1, in g (unit assumed)): 1.56 and 1.58 and 1.46 and 1.33 and 1.47 and 1.4 and 1.37 and 1.6
- body weight, individual mice ([3]; day 2, in g (unit assumed)): 1.72 and 1.94 and 1.84 and 1.42 and 1.55 and 1.46 and 1.53 and 2.01
- body weight, individual mice ([3]; day 3, in g (unit assumed)): 1.9 and 2.33 and 2.12 and 1.64 and 1.76 and 1.63 and 1.84 and 2.4
- nasoanal length, individual mice ([3]; day 4): 32 and 34 (2×) and 35 and 31 and 33 (3×)
- tail length, individual mice ([3]; day 4): 17 (3×) and 18 and 19 and 16 (2×) and 15
- body weight, individual mice ([3]; day 4, in g (unit assumed)): 2.07 and 2.76 and 2.5 and 1.89 and 2.29 and 1.86 and 2.18 and 2.91
- body weight, individual mice ([3]; day 5): 2.2 (2×) and 3.12 and 2.97 and 2.23 and 2.52 and 2.53 and 3.27
- body weight, individual mice ([3]; day 6, in g (unit assumed)): 2.34 and 3.32 and 3.31 and 2.62 and 2.85 and 2.61 and 2.97 and 3.58
- nasoanal length, individual mice ([3]; day 7): 35 and 40 and 39 and 34 and 36 (4×)
- tail length, individual mice ([3]; day 7): 25 and 23 (3×) and 21 (2×) and 24 and 22
- body weight, individual mice ([3]; day 7, in g (unit assumed)): 2.5 and 3.76 and 3.67 and 3.01 and 3.07 and 3 and 3.31 and 4
- body weight, individual mice ([3]; day 8, in g (unit assumed)): 2.88 and 4.38 and 4.13 and 3.59 and 3.58 and 3.33 and 3.74 and 4.2
- body weight, individual mice ([3]; day 9): 3.25 and 4.59 (2×) and 4.2 and 3.92 and 3.86 and 3.97 and 4.66
- nasoanal length, individual mice ([3]; day 10): 40 (3×) and 42 (3×) and 38 and 41
- tail length, individual mice ([3]; day 10): 25 and 28 and 27 (3×) and 26 (2×) and 29
- body weight, individual mice ([3]; day 10, in g (unit assumed)): 3.5 and 5.05 and 4.73 and 4.46 and 4.52 and 4.17 and 4.41 and 4.98
- body weight, individual mice ([3]; day 11, in g (unit assumed)): 3.7 and 5.46 and 5.06 and 4.65 and 4.64 and 4.44 and 4.99 and 5.57
- body weight, individual mice ([3]; day 12, in g (unit assumed)): 4.17 and 6.04 and 5.26 and 5.13 and 4.96 and 4.59 and 5.3 and 5.5
- nasoanal length, individual mice ([3]; day 13): 41 and 46 (2×) and 44 (2×) and 43 and 42 and 45
- tail length, individual mice ([3]; day 13): 31 (4×) and 35 (3×) and 32
- body weight, individual mice ([3]; day 13, in g (unit assumed)): 4.57 and 6.33 and 5.41 and 5.39
- nasoanal length, individual mice ([3]; day 16): 42 and 47 (2×) and 48 and 46 (2×) and 44 and 50
- tail length, individual mice ([3]; day 16): 33 (2×) and 36 (4×) and 34 and 35
- average normalization of long bone length toward wild-type ([3]; ACH model, 1.2 mg/kg): 26%
- source data of Figure 2E (sheet "2E"): long bone length, bone not given [3, 8]: 7.38 and 6.94 and 7.67 and 7.62 and 7.75 and 7.48 and 7.35 and 7.46
- source data of Figure 2F (sheet "2F"): long bone length, bone not given [3, 8]: 6.52 and 6.4 and 6.85 and 6.87 and 5.9 and 6.57 and 6.71
- source data of Figure 2G (sheet "2G"): long bone length, bone not given [3, 8]: 6.5 and 6.23 and 7.03 and 6.67 and 6.08 and 7.07 and 6.74 and 6.82
- source data of Figure 2H (sheet "2H"): long bone length, bone not given [3, 8]: 5.78 and 5.71 and 6.17 and 5.84 and 6.2 and 5.91 and 5.85 and 6.02
- bone growth compared with low-dose infigratinib (0.5 mg/kg) ([3]; TYRA-300 1.2 mg/kg, 15 days starting at 1 day of age, comparator data ref 28, 29): more bone growth than low-dose infigratinib
